Measured values from patent US20060089499A1, “Pyrazolopyrimidines and the use thereof for controlling harmful organisms” (priority 2002, published 2006).

Tests used:
Format in all cases: in vivo
Venturia inaequalis = assay: Venturia test (apple)/protective; conditions: topical, 240 h, protective, application rate 100 g/ha, evaluation 10 days after inoculation, read-out: Efficacy in %
Description: Venturia Test (Apple)/Protective [table] To produce a suitable preparation of active compound, 1 part by weight of active compound is mixed with the stated amounts of solvent and emulsifier, and the concentrate is diluted with water to the desired concentration. To test for protective activity, young plants are sprayed with the preparation of active compound at the stated application rate. After the spray coating has dried on, the plants are inoculated with an aqueous conidia suspension of the apple scab pathogen Venturia inaequalis and then remain in an incubation cabin at about 20° C. and 100% relative atmospheric humidity for 1 day. The plants are then placed in a greenhouse at about 21° C. and a relative atmospheric humidity of about 90%.

Alternaria solani = assay: Alternaria test (tomato)/protective; conditions: protective, application rate 750 g/ha, evaluation 7 days after inoculation
Description: (Tomato)/Protective [table] To produce a suitable preparation of active compound, 1 part by weight of active compound is mixed with the stated amounts of solvent and emulsifier, and the concentrate is diluted with water to the desired concentration. To test for protective activity, young tomato plants are sprayed with the preparation of active compound at the stated application rate. 1 day after the treatment, the plants are inoculated with a spore suspension of Alternaria solani and then remain at 100% rel. humidity and 20° C. for 24 h. The plants then remain at 96% rel. atmospheric humidity and a temperature of 20° C.

[1] = test system: Fusarium nivale (var. majus); assay: Fusarium nivale (var. majus) test (wheat)/protective; conditions: protective, application rate 500 g/ha, evaluation 6 days after inoculation
Description: Fusarium nivale (var. majus) Test (Wheat)/Protective [table] To produce a suitable preparation of active compound, 1 part by weight of active compound is mixed with the stated amounts of solvent and emulsifier, and the concentrate is diluted with water to the desired concentration. To test for protective activity, young plants are sprayed with the preparation of active compound at the stated application rate. After the spray coating has dried on, the plants are sprayed with a conidia suspension of Fusarium nivale (var. majus). The plants are placed in a greenhouse under transparent incubation hoods at a temperature of about 15° C. and a relative atmospheric humidity of about 100%.

Pyricularia oryzae = conditions: rice, protective, application rate 500 g/ha, evaluation 6 days after inoculation
[2] = test system: diamondback moth (Plutella xyostella); assay: Plutella test (plant-damaging insects); conditions: 1000 ppm active compound on synthetic feed, eggs/larvae
Description: Plutella Test [table] To produce a suitable preparation of active compound, 1 part by weight of active compound is mixed with the stated amount of solvent, and the concentrate is diluted with methanol to the desired concentrations. A stated amount of preparation of active compound of the desired concentration is pipetted onto a standardized amount of synthetic feed. After the methanol has evaporated, about 200-300 eggs of the diamondback moth (Plutella xyostella) are placed onto the feed. After the desired period of time, the kill of the eggs or larvae in % is determined. 100% means that all animals have been killed; 0% means that none of the animals has been killed.

`CC(Nc1c(-c2ccc(F)cc2Cl)c(Cl)nc2c(C#N)cnn12)C(F)(F)F` (stereo not shown) [drawing 103] was tested, and the pest or weed control at 100 g/ha (Venturia inaequalis) was 93%.

`C[C@H](Nc1c(-c2ccc(F)cc2Cl)c(Cl)nc2c(C#N)cnn12)C(F)(F)F` [drawing 104] was tested, and the pest or weed control at 100 g/ha (Venturia inaequalis) was 100%.

With `CC(C)CN(C)c1c(-c2ccccc2Cl)c(Cl)nc2c(C#N)cnn12` [drawing 105] the pest or weed control at 100 g/ha (Venturia inaequalis) was 100%.

Compound `CC1CCN(c2c(-c3ccccc3Cl)c(Cl)nc3c(C#N)cnn23)CC1` [drawing 106] has a pest or weed control at 100 g/ha (Venturia inaequalis) of 99%.

Compound `N#Cc1cnn2c(N3CCC(F)CC3)c(-c3c(F)cccc3Cl)c(Cl)nc12` [drawing 107] has a pest or weed control at 100 g/ha (Venturia inaequalis) of 98%.

`CC(C)CN(C)c1c(-c2c(F)cccc2Cl)c(Cl)nc2c(C#N)cnn12` [drawing 108] gave a pest or weed control at 100 g/ha (Venturia inaequalis) of 99%.

`C=C(C)CN(CC)c1c(-c2c(F)cccc2Cl)c(Cl)nc2c(C#N)cnn12` [drawing 109] showed a pest or weed control at 100 g/ha (Venturia inaequalis) of 100%.

`C[C@H](Nc1c(-c2c(F)cccc2Cl)c(Cl)nc2c(C#N)cnn12)C(F)(F)F` [drawing 110] was tested, and the pest or weed control at 100 g/ha (Venturia inaequalis) was 100%.

`N#Cc1cnn2c(N3CCOCC3)c(-c3c(F)cccc3Cl)c(Cl)nc12` [drawing 131] showed an Efficacy in % (Alternaria solani) of 95%.

With `N#Cc1cnn2c(N3CCCCC3)c(-c3c(F)cccc3Cl)c(Cl)nc12` [drawing 132] the Efficacy in % (Alternaria solani) was 95%.

Compound `CC(C)CNc1c(-c2ccc(F)cc2F)c(Cl)nc2c(C#N)cnn12` [drawing 133] has an Efficacy in % (Alternaria solani) of 95%.

Compound `C=C(C)CN(CC)c1c(-c2c(F)cc(F)cc2F)c(Cl)nc2c(C#N)cnn12` [drawing 134] has an Efficacy in % (Alternaria solani) of 95%.

`C[C@H](Nc1c(-c2c(F)cc(F)cc2F)c(Cl)nc2c(C#N)cnn12)C(F)(F)F` [drawing 135] gave an Efficacy in % (Alternaria solani) of 95%.

Work on `N#Cc1cnn2c(N3CCC(F)(F)CC3)c(-c3c(F)cc(F)cc3F)c(Cl)nc12` [drawing 136] yielded an Efficacy in % (Alternaria solani) of 90%.

In the case of `CC(Nc1c(-c2ccc(F)cc2Cl)c(Cl)nc2c(C#N)cnn12)C(F)(F)F` (stereo not shown) [drawing 137], the Efficacy in % [1] is reported as 88%.

`C=C(C)CN(CC)c1c(-c2c(F)cc(F)cc2F)c(Cl)nc2c(C#N)cnn12` [drawing 138] showed an Efficacy in % [1] of 100%.

With `C[C@H](Nc1c(-c2c(F)cc(F)cc2F)c(Cl)nc2c(Cl)cnn12)C(F)(F)F` [drawing 139] the Efficacy in % [1] was 80%.

`C[C@H](Nc1c(-c2c(F)cc(F)cc2F)c(Cl)nc2c(Cl)cnn12)C(F)(F)F` [drawing 140] showed an Efficacy in % (Pyricularia oryzae) of 88%.

Compound `C[C@H](Nc1c(-c2c(F)cc(F)cc2F)c(Cl)nc2c(C#N)cnn12)C(F)(F)F` [drawing 141] has an Efficacy in % (Pyricularia oryzae) of 88%.

`N#Cc1cnn2c(NCC3CC3)c(-c3c(F)cc(F)cc3F)c(Cl)nc12` [drawing 142] gave an Efficacy in % (Pyricularia oryzae) of 86%.

For `C[C@H](Nc1c(-c2ccccc2F)c(Cl)nc2c(C#N)cnn12)C(F)(F)F` [drawing 143], the Efficacy in % (Pyricularia oryzae) was 75%.

`CC(Nc1c(-c2ccc(F)cc2Cl)c(Cl)nc2c(C#N)cnn12)C(F)(F)F` (stereo not shown) [drawing 144] was tested, and the “Kill rate in % after 7^d” value [2] was 100%.
